The record followed here is patent publication US11254686B1 (Corvus Pharmaceuticals, Inc., priority 2017, dated 2022).

Molecules are shown by their SMILES.

One series deals with adenosine A1 receptor (Homo sapiens (Human), UniProt P30542). Nature of the series: A1 cAMP IC50 assay (Table 1). It counts as biochemical.
Series [1] can be described thus: Hepatocyte (Hep) intrinsic clearance, human. It counts as in vitro ADME. Conditions: hepatocytes.
Series [2] in a line: Hepatocyte (Hep) intrinsic clearance, rat. The series is classed as in vitro ADME. To be noted: hepatocytes.
The next series has as its target adenosine A3 receptor (Homo sapiens (Human), UniProt P0DMS8). Nature of the series: A3 cAMP IC50 assay (Table 1). The series is classed as biochemical.
The next series concerns the target adenosine A2A receptor (Homo sapiens (Human), UniProt P29274). The series can be described thus: Adenosine receptor activity assay (Table 1), A2A activity. It counts as biochemical. To be noted: read-out: Ave A2A cAMP IC50.
The next series concerns the target adenosine A2B receptor (Homo sapiens (Human), UniProt P29275). Nature of the series: Adenosine receptor activity assay (Table 1), A2B activity. The series is classed as biochemical. To be noted: for Ratio: A2A activity to A2B activity (A2A/A2B); for IC50: read-out: Ave A2B cAMP IC50.

Chain of adenosine A1 receptor (P30542 whole entry): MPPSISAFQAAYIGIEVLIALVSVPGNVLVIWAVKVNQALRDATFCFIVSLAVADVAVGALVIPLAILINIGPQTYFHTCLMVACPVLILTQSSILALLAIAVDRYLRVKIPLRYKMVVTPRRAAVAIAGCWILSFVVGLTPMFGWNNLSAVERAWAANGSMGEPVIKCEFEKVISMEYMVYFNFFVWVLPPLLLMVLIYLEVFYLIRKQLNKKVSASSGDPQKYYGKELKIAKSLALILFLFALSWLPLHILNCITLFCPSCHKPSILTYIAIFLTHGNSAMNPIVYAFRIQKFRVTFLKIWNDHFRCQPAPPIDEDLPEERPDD
Chain of adenosine A3 receptor (P0DMS8 whole entry): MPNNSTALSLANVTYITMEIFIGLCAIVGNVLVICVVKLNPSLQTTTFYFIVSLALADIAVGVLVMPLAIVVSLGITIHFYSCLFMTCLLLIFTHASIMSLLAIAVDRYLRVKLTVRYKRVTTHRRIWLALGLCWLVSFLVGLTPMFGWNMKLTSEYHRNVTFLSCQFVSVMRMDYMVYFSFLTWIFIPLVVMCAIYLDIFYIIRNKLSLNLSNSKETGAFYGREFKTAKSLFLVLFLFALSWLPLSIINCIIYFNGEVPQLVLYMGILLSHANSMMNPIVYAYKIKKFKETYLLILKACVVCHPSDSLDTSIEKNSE
Chain of adenosine A2B receptor (P29275 whole entry): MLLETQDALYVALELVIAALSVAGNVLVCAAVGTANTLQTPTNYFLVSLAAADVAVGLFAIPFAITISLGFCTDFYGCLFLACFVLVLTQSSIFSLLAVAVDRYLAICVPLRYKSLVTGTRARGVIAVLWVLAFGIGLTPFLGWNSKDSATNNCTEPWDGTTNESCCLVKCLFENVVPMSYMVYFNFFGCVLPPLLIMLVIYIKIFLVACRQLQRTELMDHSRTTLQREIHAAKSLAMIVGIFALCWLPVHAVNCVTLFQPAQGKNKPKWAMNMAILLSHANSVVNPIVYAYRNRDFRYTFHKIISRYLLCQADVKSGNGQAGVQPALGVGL
Chain of adenosine A2A receptor (P29274 whole entry): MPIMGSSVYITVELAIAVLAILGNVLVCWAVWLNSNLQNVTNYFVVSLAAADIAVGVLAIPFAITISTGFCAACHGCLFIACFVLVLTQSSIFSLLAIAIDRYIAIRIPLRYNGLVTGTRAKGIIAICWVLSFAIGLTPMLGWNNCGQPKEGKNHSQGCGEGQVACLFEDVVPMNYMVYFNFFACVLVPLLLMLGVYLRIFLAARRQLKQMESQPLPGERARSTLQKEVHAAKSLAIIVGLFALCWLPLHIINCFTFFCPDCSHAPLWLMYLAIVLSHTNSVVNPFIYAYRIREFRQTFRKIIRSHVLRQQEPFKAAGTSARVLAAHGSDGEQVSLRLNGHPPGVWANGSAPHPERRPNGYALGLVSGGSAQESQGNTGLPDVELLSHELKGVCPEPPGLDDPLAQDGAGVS

As to `C[C@H](Nc1nc(C(=O)N2CC[C@H](O)C2)c2sccc2n1)c1cccc(F)c1` [Example Z129, (2-(((S)-1-(3-Fluorophenyl)ethyl)amino)thieno[3,2-d]pyrimidin-4-yl)((S)-3-hydroxypyrrolidin-1-yl)methanone], the IC50 is greater than 500 nM against adenosine A1 receptor, 50 to 100 nM on adenosine A3 receptor, 100 to 500 nM on adenosine A2A receptor and 10 to 50 nM on adenosine A2B receptor. The values for the hepatocyte CLint in series [1] and in series [2] were 9.59 µL/min/1e6 cells and 43 µL/min/1e6 cells, respectively. On adenosine A2B receptor, the Ratio came to 22.27.

In the case of `COc1cc(F)cc(CNc2nc(C(=O)N3CC(O)C3)c3sccc3n2)c1` [Example Z137, (2-((3-Fluoro-5-methoxybenzyl)amino)thieno[3,2-d]pyrimidin-4-yl)(3-hydroxyazetidin-1-yl)methanone], the IC50 was greater than 500 nM on adenosine A1 receptor, 10 to 50 nM against adenosine A3 receptor, 100 to 500 nM on adenosine A2A receptor and 10 to 50 nM on adenosine A2B receptor. In addition, the hepatocyte CLint in series [1] came out at 74.8 µL/min/1e6 cells; in series [2], 66.8 µL/min/1e6 cells. For the same molecule, the Ratio on adenosine A2B receptor amounted to 19.91.

In the case of `C[C@H](Nc1nc(C(=O)NCCO)c2sccc2n1)c1cccnc1` [Example Z145, (S)—N-(2-Hydroxyethyl)-2-((1-(pyridin-3-yl)ethyl)amino)thieno[3,2-d]pyrimidine-4-carboxamide], the hepatocyte CLint in series [1] came to 1.92 µL/min/1e6 cells; in series [2] it was 8.46 µL/min/1e6 cells. The values for the IC50 on adenosine A2A receptor and on adenosine A2B receptor were 100 to 500 nM and 10 to 50 nM, respectively.

As for `C[C@H](Nc1nc(C(=O)NC2CC(O)C2)c2sccc2n1)c1ccccn1` (stereo partly drawn) [Example Z158, N-((1s,3R)-3-Hydroxycyclobutyl)-2-(((S)-1-(pyridin-2-yl)ethyl)amino)thieno[3,2-d]pyrimidine-4-carboxamide], the hepatocyte CLint was determined as 20.6 µL/min/1e6 cells in series [1] and 22.6 µL/min/1e6 cells in series [2]. Besides, on adenosine A2B receptor, the Ratio was 9.39.

For the molecule `C[C@H](Nc1nc(C(=O)N[C@H]2C[C@H](O)C2)c2sccc2n1)c1ccccn1` [Example Z159, N-((1r,3S)-3-Hydroxycyclobutyl)-2-(((S)-1-(pyridin-2-yl)ethyl)amino)thieno[3,2-d]pyrimidine-4-carboxamide], the IC50 is greater than 500 nM against adenosine A1 receptor, greater than 500 nM at adenosine A3 receptor, 100 to 500 nM at adenosine A2A receptor and 10 to 50 nM on adenosine A2B receptor. Also, at adenosine A2B receptor, the Ratio turned out to be 5.18.

On to `CNc1cc2nc(NCc3ccccn3)nc(C(=O)N3CCCC3)c2s1` [Example Z160, (6-(Methylamino)-2-((pyridin-2-ylmethyl)amino)thieno[3,2-d]pyrimidin-4-yl)(pyrrolidin-1-yl)methanone], for which the IC50 was greater than 500 nM against adenosine A1 receptor, 50 to 100 nM on adenosine A3 receptor, greater than 500 nM at adenosine A2A receptor and 10 to 50 nM at adenosine A2B receptor. Besides, the Ratio at adenosine A2B receptor is listed as 22.65.

As for `CNc1cc2nc(N[C@@H](C)c3cccnc3)nc(C(=O)N3CC[C@@H](F)C3)c2s1` [Example Z161, ((R)-3-Fluoropyrrolidin-1-yl)(6-(methylamino)-2-(((S)-1-(pyridin-3-yl)ethyl)amino)thieno[3,2-d]pyrimidin-4-yl)methanone], the half-inhibitory concentration (IC50) was greater than 500 nM against adenosine A1 receptor, 50 to 100 nM at adenosine A3 receptor, 100 to 500 nM on adenosine A2A receptor and less than 10 nM on adenosine A2B receptor. Further, the Ratio on adenosine A2B receptor was found to be 29.83.

For the molecule `C[C@H](Nc1nc(C(=O)NC[C@@H](C)O)c2sccc2n1)c1ccccn1` [Example Z162, N—((R)-2-Hydroxypropyl)-2-(((S′)-1-(pyridin-2-yl)ethyl)amino)thieno[3,2-d]pyrimidine-4-carboxamide], the IC50 against adenosine A1 receptor is greater than 500 nM; on adenosine A3 receptor, greater than 500 nM; at adenosine A2A receptor, 100 to 500 nM; on adenosine A2B receptor, 10 to 50 nM. Also, on adenosine A2B receptor, the Ratio is 5.97.

Turning to `C[C@H](O)CNC(=O)c1nc(N[C@@H](C)c2ccccn2)nc2ccsc12` [Example Z163, N—((S)-2-Hydroxypropyl)-2-(((S)-1-(pyridin-2-yl)ethyl)amino)thieno[3,2-d]pyrimidine-4-carboxamide], the IC50 against adenosine A1 receptor was greater than 500 nM; on adenosine A3 receptor it was greater than 500 nM; at adenosine A2A receptor, 100 to 500 nM; on adenosine A2B receptor, 50 to 100 nM. For the same molecule, at adenosine A2B receptor, the Ratio is given as 4.38.

As to `CC(C)(C)OC(=O)N[C@@H]1CCN(C(=O)c2nc(NCc3cc(F)cc(F)c3)nc3ccsc23)C1` [Example Z167, tert-Butyl (R)-(1-(2-((3,5-difluorobenzyl)amino)thieno[3,2-d]pyrimidine-4-carbonyl)pyrrolidin-3-yl)carbamate], the IC50 on adenosine A1 receptor was greater than 500 nM; against adenosine A3 receptor, 50 to 100 nM; on adenosine A2A receptor it was 100 to 500 nM; at adenosine A2B receptor, 10 to 50 nM. The Ratio at adenosine A2B receptor is 16.55.

With `CCOc1ccc(CNC(=O)c2nc(N[C@@H](C)c3ccccn3)nc3ccsc23)cn1` [Example Z170, (S)—N-((6-ethoxypyridin-3-yl)methyl)-2-((1-(pyridin-2-yl)ethyl)amino)thieno[3,2-d]pyrimidine-4-carboxamide], the IC50 on adenosine A1 receptor lay in the range of 100 to 500 nM; against adenosine A3 receptor it was 100 to 500 nM; on adenosine A2A receptor it was 50 to 100 nM; on adenosine A2B receptor it was 50 to 100 nM. Also, on adenosine A2B receptor, the Ratio came to 1.24.

On to `CNc1cc2nc(N[C@@H](C)c3cccnc3)nc(C(=O)N3CC[C@@H](O)C3)c2s1` [Example Z172, ((R)-3-Hydroxypyrrolidin-1-yl)(6-(methylamino)-2-(((S)-1-(pyridin-3-yl)ethyl)amino)thieno[3,2-d]pyrimidin-4-yl)methanone], for which the IC50 was greater than 500 nM against adenosine A1 receptor, greater than 500 nM at adenosine A3 receptor, greater than 500 nM at adenosine A2A receptor and 50 to 100 nM on adenosine A2B receptor. Further, the Ratio on adenosine A2B receptor came out at 54.37.

Turning to `CNc1cc2nc(N[C@@H](C)c3ccccn3)nc(C(=O)N3CCC3)c2s1` [Example Z173, (S)-Azetidin-1-yl(6-(methylamino)-2-((1-(pyridin-2-yl)ethyl)amino)thieno[3,2-d]pyrimidin-4-yl)methanone], the IC50 against adenosine A1 receptor is greater than 500 nM; at adenosine A3 receptor, 50 to 100 nM; on adenosine A2A receptor it was 100 to 500 nM; on adenosine A2B receptor it was less than 10 nM. Moreover, on adenosine A2B receptor, the Ratio amounted to 45.26.

`CNc1cc2nc(N[C@@H](C)c3ccccn3)nc(C(=O)N3CC[C@@H](F)C3)c2s1` [Example Z175, ((R)-3-fluoropyrrolidin-1-yl)(6-(methylamino)-2-(((S)-1-(pyridin-2-yl)ethyl)amino)thieno[3,2-d]pyrimidin-4-yl)methanone]: the 50% inhibitory concentration (IC50) at adenosine A1 receptor is greater than 500 nM; against adenosine A3 receptor, 50 to 100 nM; on adenosine A2A receptor, 100 to 500 nM; on adenosine A2B receptor it was less than 10 nM. For the same molecule, the Ratio on adenosine A2B receptor worked out at 22.59.

For `CNc1cc2nc(N[C@@H](C)c3ccccn3)nc(C(=O)N3CC[C@@H](O)C3)c2s1` [Example Z176, ((R)-3-Hydroxypyrrolidin-1-yl)(6-(methylamino)-2-(((S)-1-(pyridin-2-yl)ethyl)amino)thieno[3,2-d]pyrimidin-4-yl)methanone], the IC50 against adenosine A1 receptor was greater than 500 nM; at adenosine A3 receptor it was 50 to 100 nM; on adenosine A2A receptor it was greater than 500 nM; on adenosine A2B receptor, 10 to 50 nM. For the same molecule, the Ratio on adenosine A2B receptor stood at 27.44.

On to `O=C(NC1CCC1)c1nc(NCc2cc(F)cc(F)c2)nc2ccsc12` [Example Z177, N-Cyclobutyl-2-((3,5-difluorobenzyl)amino)thieno[3,2-d]pyrimidine-4-carboxamide], for which the IC50 against adenosine A1 receptor was 50 to 100 nM; against adenosine A3 receptor, greater than 500 nM; on adenosine A2A receptor, 50 to 100 nM; on adenosine A2B receptor, 10 to 50 nM. The Ratio on adenosine A2B receptor is 7.01.

Regarding `C[C@H](Nc1nc(C(=O)NC2CCCC2)c2sccc2n1)c1ccccn1` [Example Z180, (S)—N-Cyclopentyl-2-((1-(pyridin-2-yl)ethyl)amino)thieno[3,2-d]pyrimidine-4-carboxamide], the IC50 against adenosine A1 receptor lay within 100 to 500 nM; on adenosine A3 receptor it was 100 to 500 nM; on adenosine A2A receptor, 10 to 50 nM; on adenosine A2B receptor, 10 to 50 nM. At adenosine A2B receptor, the Ratio is 1.80.

For the molecule `O=C(NC1CC(O)C1)c1nc(NCc2cncc(F)c2)nc2ccsc12` (stereo not shown) [Example Z184, 2-(((5-Fluoropyridin-3-yl)methyl)amino)-N-((1r,3r)-3-hydroxycyclobutyl)thieno[3,2-d]pyrimidine-4-carboxamide], the IC50 was greater than 500 nM on adenosine A1 receptor, greater than 500 nM against adenosine A3 receptor, greater than 500 nM on adenosine A2A receptor and 10 to 50 nM at adenosine A2B receptor. Moreover, the Ratio on adenosine A2B receptor was determined as 25.53.

In the case of `CNc1cc2nc(N[C@@H](C)c3cccnc3)nc(C(=O)N3CC[C@H](F)C3)c2s1` [Example Z187, ((S)-3-Fluoropyrrolidin-1-yl)(6-(methylamino)-2-(((S)-1-(pyridin-3-yl)ethyl)amino)thieno[3,2-d]pyrimidin-4-yl)methanone], the IC50 at adenosine A1 receptor was greater than 500 nM; against adenosine A3 receptor, 50 to 100 nM; at adenosine A2A receptor it was 100 to 500 nM; at adenosine A2B receptor it was less than 10 nM. Also, the Ratio at adenosine A2B receptor stood at 48.67.

Consider `C[C@H](Nc1nc(C(=O)N2CCC2)c2sc(N)cc2n1)c1ccccn1` [Example Z189, (S)-(6-Amino-2-((1-(pyridin-2-yl)ethyl)amino)thieno[3,2-d]pyrimidin-4-yl)(azetidin-1-yl)methanone], for which the IC50 at adenosine A1 receptor is greater than 500 nM; against adenosine A3 receptor, 50 to 100 nM; on adenosine A2A receptor, 100 to 500 nM; at adenosine A2B receptor, less than 10 nM. The Ratio at adenosine A2B receptor was determined as 36.15.

On to `C[C@H](Nc1nc(C(=O)NC2CC2)c2sccc2n1)c1ccccn1` [Example Z192, (S)—N-Cyclopropyl-2-((1-(pyridin-2-yl)ethyl)amino)thieno[3,2-d]pyrimidine-4-carboxamide], for which the IC50 on adenosine A1 receptor was 50 to 100 nM; against adenosine A3 receptor, greater than 500 nM; on adenosine A2A receptor, 10 to 50 nM; at adenosine A2B receptor it was less than 10 nM. At adenosine A2B receptor, the Ratio is listed as 6.93.

A word on the IC50: it is the concentration that gives 50% inhibition. For orientation: hepatocyte CLint means the rate of metabolic loss divided by the concentration. A lower hepatocyte CLint goes with slow turnover.
